This is an account of results in patent US4207326A, “Antimicrobial quaternary pyrazole derivatives” (Cilag-Chemie A.G., priority 1979, dated 1980).

Molecules are shown by their SMILES. Read-outs that look alike come from different tables or passages of the source.

The assay deals with Algae (diatoms, green and blue algae). Description: Algicidal activity in 350 liter concrete pools under outdoor conditions. Conditions: for killing at 1 µg/mL: 1 mg/l water; for killing at 2 µg/mL: 2 mg/l water; for killing at 4 µg/mL: 4 mg/l water. The source says: A comparison of the algicidic activity of the preferred compound, 1-hexadecyl-2,3,5-trimethyl-pyrazolium methosulfate, with said standard is shown in Table 4.
Results given above are mean values from 2 replicates of
Test conditions: Severe with high infection pressure after artificial
algae inoculation in 350 liter concrete pools under outdoor conditions.
Stains included: Green algae: Chlorella, Zygnema, Hormidium + Scenedesmus
Blue algae: Phormidium species
Diatoms: Nitzschea pallea
Water temperature: Day: 21° C., night: 18°-20° C.

Where [1] appears, read: mean over weeks 1-6, read-out: % algicidal activity, --x (mean).
The mark [2] stands for this setting: 168 h, 1 week after treatment, mean of 2 replicates, read-out: % algicidal activity.
The mark [3] stands for this setting: 336 h, 2 weeks after treatment, mean of 2 replicates, read-out: % algicidal activity.
[4] abbreviates: 504 h, 3 weeks after treatment, mean of 2 replicates, read-out: % algicidal activity.
The mark [5] stands for this setting: 672 h, 4 weeks after treatment, mean of 2 replicates, read-out: % algicidal activity.
The mark [6] stands for this setting: 840 h, 5 weeks after treatment, mean of 2 replicates, read-out: % algicidal activity.
Where [7] appears, read: 1008 h, 6 weeks after treatment, mean of 2 replicates, read-out: % algicidal activity.

In the case of `CCCCCCCCCCCCCCCCn1c(C)cc(C)[n+]1C` [Example 2, 1-hexadecyl-2,3,5-trimethyl-pyrazolium methosulfate], the killing at 1 µg/mL under setting [1] came out at 96%; the killing at 1 µg/mL under setting [2] was 100%; the killing at 1 µg/mL under setting [3] worked out at 100%; the killing at 1 µg/mL under setting [5] was 96%; the killing at 1 µg/mL under setting [6] amounted to 93%; the killing at 1 µg/mL under setting [7] amounted to 88%. Besides, the killing at 2 µg/mL under setting [1] is 99%; the killing at 2 µg/mL under setting [2] was determined as 100%; the killing at 2 µg/mL under setting [3] is 100%; the killing at 2 µg/mL under setting [4] was determined as 100%; the killing at 2 µg/mL under setting [5] amounted to 100%; the killing at 2 µg/mL under setting [6] came out at 100%. In addition, the killing at 2 µg/mL under setting [7] came out at 98%. The killing at 4 µg/mL runs as follows: under setting [1], 100%; under setting [2], 100%; under setting [3], 100%; under setting [4], 100%; under setting [5], 100%; under setting [6], 100%. Moreover, the killing at 4 µg/mL under setting [7] amounted to 100%.
